Counter-ions that a name gives are not always drawn. Like-named read-outs stand apart in the source and are kept apart here.
Tested on: Mtb strain H37Rv
Test: Antitubercular activity, OD600 based growth inhibition assay (IC90)
Assay type: cell-based, Mycobacterium tuberculosis
[1] = Mycobacterium tuberculosis, H37RV, 168 h, Mtb H37Rv, 7 days incubation, growth read by OD600, concentration giving 90% inhibition of growth of the control, read-out: IC90
[2] = Mtb H37Rv, 7 days incubation, growth read by OD600, concentration giving 90% inhibition of growth of the control, read-out: IC90

Compound	IC90 [1]	also measured
Cc1cc2oc(=O)cc(-c3ccccc3)c2c(C)c1-c1ccc(CN2CCOCC2)cc1 [Compound 1, 5,7-Dimethyl-6-(4-(morpholinomethyl)phenyl)-4-phenyl-2H-chromen-2-one]	0.001 to 10 µM	
Cc1cc2oc(=O)cc(-c3ccccc3)c2c(C)c1-c1ccc(CN2CCCCC2)cc1 [Compound 2, 5,7-Dimethyl-4-phenyl-6-(4-(piperidine-1-ylmethyl)phenyl)-2H-chromen-2-one]	10 to 50 µM	
Cc1cc2oc(=O)cc(-c3ccccc3)c2c(C)c1-c1ccc(CNC2CCCCC2)cc1 [Compound 3, 6-(4-((Cyclohexylamino)methyl)phenyl)-5,7-dimethyl-4-phenyl-2H-chromen-2-one]	0.001 to 10 µM	
CCCCCCNCc1ccc(-c2c(C)cc3oc(=O)cc(-c4ccccc4)c3c2C)cc1 [Compound 4, 6-(4-((Hexylamino)methyl)phenyl)-5,7-dimethyl-4-phenyl-2H-chromen-2-one]	0.001 to 10 µM	
Cc1cc2oc(=O)cc(-c3ccccc3)c2c(C)c1-c1ccc(CN2CCN(C)CC2)cc1 [Compound 5, 5,7-Dimethyl-6-(4-((4-methylpiperazin-1-yl)methyl)phenyl)-4-phenyl-2H-chromen-2-one]	0.001 to 10 µM	
Cc1cc2oc(=O)cc(-c3cccc(N)c3)c2c(C)c1-c1ccc(CN2CCOCC2)cc1 [Compound 6, 4-(3-Aminophenyl)-5,7-dimethyl-6-(4-(morpholinomethyl)phenyl)-2H-chromen-2-one hydrochloride]		IC90 (Mycobacterium tuberculosis, H37RV, 168 h): 0.001 to 10 µM
Cc1cc2oc(=O)cc(-c3ccc(N)cc3)c2c(C)c1-c1ccc(CN2CCOCC2)cc1 [Compound 7, 4-(4-Aminophenyl)-5,7-dimethyl-6-(4-(morpholinomethyl)phenyl)-2H-chromen-2-one]	10 to 50 µM	
Cc1cc2oc(=O)cc(-c3cccc([N+](=O)[O-])c3)c2c(C)c1-c1ccc(CN2CCOCC2)cc1 [Compound 8, 5,7-Dimethyl-6-(4-(morpholinomethyl)phenyl)-4-(3-nitrophenyl)-2H-chromen-2-one]	0.001 to 10 µM	
COC(=O)c1cccc(-c2cc(=O)oc3cc(C)c(-c4ccc(CN5CCOCC5)cc4)c(C)c23)c1 [Compound 9, Methyl 3-(5,7-dimethyl-6-(4-(morpholinomethyl)phenyl)-2-oxo-2H-chromen-4-yl)benzoate]	50 to 100 µM	
CC(=O)Nc1cccc(-c2cc(=O)oc3cc(C)c(-c4ccc(CN5CCOCC5)cc4)c(C)c23)c1 [Compound 10, N-(3-(5,7-dimethyl-6-(4-(morpholinomethyl)phenyl)-2-oxo-2H-chromen-4-yl)phenyl)acetamide]	10 to 50 µM	
Cc1cc2oc(=O)cc(-c3cccc(NS(C)(=O)=O)c3)c2c(C)c1-c1ccc(CN2CCOCC2)cc1 [Compound 11, N-(3-(5,7-dimethyl-6-(4-(morpholinomethyl)phenyl)-2-oxo-2H-chromen-4-yl)phenyl)methanesulfonamide]	50 to 100 µM	
CCOC(=O)Nc1cccc(-c2cc(=O)oc3cc(C)c(-c4ccc(CN5CCOCC5)cc4)c(C)c23)c1 [Compound 12, Ethyl (3-(5,7-dimethyl-6-(4-(morpholinomethyl)phenyl)-2-oxo-2H-chromen-4-yl)phenyl)carbamate]		IC90 [2]: 10 to 50 µM
Cc1cc2oc(=O)cc(-c3cccnc3)c2c(C)c1-c1ccc(CN2CCOCC2)cc1 [Compound 13, 5,7-Dimethyl-6-(4-(morpholinomethyl)phenyl)-4-(pyridin-3-yl)-2H-chromen-2-one]	0.001 to 10 µM	
Cc1cc2oc(=O)cc(-c3ccccc3)c2c(C)c1-c1ccc(C#N)cc1 [Compound 14]	> 100 µM	
Cc1ccc(-c2c(C)cc3oc(=O)cc(-c4ccccc4)c3c2C)cc1 [Compound 15]	10 to 50 µM	
COc1ccc(-c2c(C)cc3oc(=O)cc(-c4ccccc4)c3c2C)cc1 [Compound 16]	> 100 µM	
COc1ccccc1-c1c(C)cc2oc(=O)cc(-c3ccccc3)c2c1C [Compound 17]	> 100 µM	
COc1cccc(-c2c(C)cc3oc(=O)cc(-c4ccccc4)c3c2C)c1 [Compound 18]	10 to 50 µM	
Cc1cc2oc(=O)cc(-c3ccccc3)c2c(C)c1-c1ccc(O)cc1 [Compound 19]	> 100 µM	
Cc1cc2oc(=O)cc(-c3ccccc3)c2c(C)c1-c1ccc(CO)cc1 [Compound 20]		IC90 [2]: 0.001 to 10 µM
Cc1cc(CO)ccc1-c1c(C)cc2oc(=O)cc(-c3ccccc3)c2c1C [Compound 21]	10 to 50 µM	
Cc1cc2oc(=O)cc(-c3ccccc3)c2c(C)c1-c1ccc(CS)cc1 [Compound 22]	> 100 µM	
C=Cc1ccc(-c2c(C)cc3oc(=O)cc(-c4ccccc4)c3c2C)cc1 [Compound 23]	> 100 µM	
CCc1ccc(-c2c(C)cc3oc(=O)cc(-c4ccccc4)c3c2C)cc1 [Compound 24]	> 100 µM	
Cc1cc2oc(=O)cc(-c3ccccc3)c2c(C)c1-c1ccc(Cl)cc1 [Compound 25]	50 to 100 µM	

Compound	IC90 [1]	also measured
Cc1cc2oc(=O)cc(-c3ccccc3)c2c(C)c1-c1cccc(Cl)c1 [Compound 26]	> 100 µM	
Cc1cc2oc(=O)cc(-c3ccccc3)c2c(C)c1-c1ccccc1Cl [Compound 27]	10 to 50 µM	
Cc1cc2oc(=O)cc(-c3ccccc3)c2c(C)c1-c1ccc(F)cc1 [Compound 28]	10 to 50 µM	
Cc1cc2oc(=O)cc(-c3ccccc3)c2c(C)c1-c1cccc(F)c1 [Compound 29]	10 to 50 µM	
Cc1cc2oc(=O)cc(-c3ccccc3)c2c(C)c1-c1ccc(C(F)(F)F)cc1 [Compound 30]	10 to 50 µM	
Cc1cc2oc(=O)cc(-c3ccccc3)c2c(C)c1-c1cccc(C(F)(F)F)c1 [Compound 31]	> 100 µM	
CC(=O)c1ccc(-c2c(C)cc3oc(=O)cc(-c4ccccc4)c3c2C)cc1 [Compound 32]	> 100 µM	
Cc1cc2oc(=O)cc(-c3ccccc3)c2c(C)c1-c1ccc(C(C)O)cc1 (stereo not shown) [Compound 33]	0.001 to 10 µM	
CNC(=O)c1ccc(-c2c(C)cc3oc(=O)cc(-c4ccccc4)c3c2C)cc1 [Compound 34]	0.001 to 10 µM	
Cc1cc2oc(=O)cc(-c3ccccc3)c2c(C)c1-c1ccncc1 [Compound 35]	0.001 to 10 µM	
Cc1cnccc1-c1c(C)cc2oc(=O)cc(-c3ccccc3)c2c1C [Compound 36]	10 to 50 µM	
Cc1cc2oc(=O)cc(-c3ccccc3)c2c(C)c1-c1cccnc1 [Compound 37]	50 to 100 µM	
COc1ncc(-c2c(C)cc3oc(=O)cc(-c4ccccc4)c3c2C)cn1 [Compound 38]	> 100 µM	
COc1ncc(-c2c(C)cc3oc(=O)cc(-c4ccccc4)c3c2C)c(OC)n1 [Compound 39]	10 to 50 µM	
Cc1cc2oc(=O)cc(-c3ccccc3)c2c(C)c1-c1cnc(C)c2ccccc12 [Compound 40]	> 100 µM	
Cc1cc2oc(=O)cc(-c3ccccc3)c2c(C)c1-c1cncnc1 [Compound 41]	0.001 to 10 µM	
Cc1ccc(/C=C/c2c(C)cc3oc(=O)cc(-c4ccccc4)c3c2C)cc1 [Compound 42]	50 to 100 µM	
CCOC(=O)Nc1cccc(-c2cc(=O)oc3cc(C)c(-c4ccc(CN5CCOCC5)cc4)c(C)c23)c1 [Compound 43]		IC90 [2]: > 100 µM
COc1ccc(-c2cc(=O)oc3cc(C)c(-c4ccc(CN5CCOCC5)cc4)c(C)c23)cc1 [Compound 44]	> 100 µM	
Cc1ccc(-c2ccc3oc(=O)cc(-c4ccccc4)c3c2)cc1 [Compound 45]	> 100 µM	
O=c1cc(-c2ccccc2)c2cc(-c3ccc(CO)cc3)ccc2o1 [Compound 47]	> 100 µM	
Cc1cc2oc(=O)cc(-c3ccccc3)c2cc1-c1ccc(CO)cc1 [Compound 48]	50 to 100 µM	
Cc1c(-c2ccc(CO)cc2)ccc2oc(=O)cc(-c3ccccc3)c12 [Compound 49]	50 to 100 µM	
Cc1cc2oc(=O)cc(-c3ccccc3)c2c(C)c1-c1ccc(CO)cc1 [Compound 50]		IC90 [2]: > 100 µM
